Source: PubChem BioAssay (NCI)
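At the GI50, growth is halved. TGI: total growth inhibition.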

Key:
Assay in all cases: NCI-60 cell line screen, 384-well format
DU-145 prostate = system: DU-145 prostate
SK-OV-3 ovarian = system: SK-OV-3 ovarian
MALME-3M melanoma = system: MALME-3M melanoma
TK-10 renal = system: TK-10 renal
SNB-75 CNS = system: SNB-75 CNS
LOX IMVI melanoma = system: LOX IMVI melanoma
COLO 205 colon = system: COLO 205 colon
OVCAR-4 ovarian = system: OVCAR-4 ovarian
HS 578T breast = system: HS 578T breast
OVCAR-3 ovarian = system: OVCAR-3 ovarian
UACC-62 melanoma = system: UACC-62 melanoma
UO-31 renal = system: UO-31 renal
SW-620 colon = system: SW-620 colon

Row | Compound | GI50 (DU-145 prostate) | TGI (DU-145 prostate) | GI50 (SK-OV-3 ovarian) | TGI (SK-OV-3 ovarian) | GI50 (MALME-3M melanoma) | TGI (MALME-3M melanoma) | GI50 (TK-10 renal) | TGI (TK-10 renal) | GI50 (SNB-75 CNS) | TGI (SNB-75 CNS) | GI50 (LOX IMVI melanoma) | TGI (LOX IMVI melanoma) | GI50 (COLO 205 colon) | TGI (COLO 205 colon) | GI50 (OVCAR-4 ovarian) | TGI (OVCAR-4 ovarian) | GI50 (HS 578T breast) | TGI (HS 578T breast) | GI50 (OVCAR-3 ovarian) | TGI (OVCAR-3 ovarian) | other results
1 | Cc1[nH]c2ccccc2c1CCNCc1ccc(/C=C/C(=O)NO)cc1 | < 10 nM | 17.9 nM | 15.4 nM | 33.3 nM | < 10 nM | 16.3 nM | 17.3 nM | 55.2 nM | < 12.4 nM | 45.9 nM | 13.1 nM | 26.2 nM | 12.3 nM | 22.7 nM | 27.5 nM | 60.9 nM | 11.5 nM | 24.3 nM | 16.7 nM | 43.7 nM | GI50 (UACC-62 melanoma): < 10 nM; TGI (UACC-62 melanoma): 16.1 nM; GI50 (UO-31 renal): 31.8 nM; TGI (UO-31 renal): 128 nM; GI50 (SW-620 colon): 12.3 nM; TGI (SW-620 colon): 25.5 nM
2 | COCCNc1cc(NC(=O)N2CCCc3cc(CN4CCN(C)CC4=O)c(C=O)nc32)ncc1C#N | > 100000 nM | > 100000 nM | > 100000 nM | > 100000 nM | > 100000 nM | > 100000 nM | > 84900 nM | > 100000 nM | > 100000 nM | > 100000 nM | > 100000 nM | > 100000 nM | > 100000 nM | > 100000 nM | > 100000 nM | > 100000 nM | > 100000 nM | > 100000 nM | > 69300 nM | > 100000 nM | GI50 (UACC-62 melanoma): > 100000 nM; TGI (UACC-62 melanoma): > 100000 nM; GI50 (UO-31 renal): > 100000 nM; TGI (UO-31 renal): > 100000 nM; GI50 (SW-620 colon): > 100000 nM; TGI (SW-620 colon): > 100000 nM
